Bridge positions count the residues as written; N and C are the ends. Square brackets hold non-standard residues; d marks the D form. Peptide text beside a SMILES is read from it. Nle = CCCC[C@H](N)C(=O)O; Abu = CC[C@H](N)C(=O)O
Experiments:
[1] = target: chymotrypsin (Bos taurus, UniProt P00766); assay: in vitro
Method: FIG. 18. […] At different time point, 25 μL aliquots was taken out, and 10% (v/v) TFA was added to terminate the reaction.
Mix by centrifugation at 8000 rpm for 30 seconds.
Arrange a certain volume of 0.05 μg/μL chymotrypsin solution in another sterile EP. Incubate the EP tubes containing peptides and enzymes at 37° C. for 5 min, and add 3 μL of […] solution to each EP tube containing peptides and mix well. Start timing and extract 25 μL of reaction solution at 1.5, 3.0, 4.5, 6.0 and 9.0 min later, respectively. Add 3.75 μL of 10% TFA to terminate the reaction and mix well by centrifugation at 8000 rpm for 30 seconds.
Arrange a certain volume of 0.05 μg/μL chymotrypsin solution in another sterile EP. Incubate the EP tubes containing peptides and enzymes at 37° C. for 5 min, and then add 4.5 μL of chymotrypsin solution to each EP tube containing peptides and mix well. Start timing and extract 25 μL of reaction solution at 1.5, 3.0, 4.5, 6.0, 9.0, 15.0, 30.0, and 60.0 min later, respectively. Add 3.75 μL of 10% TFA to terminate the reaction and mix well by centrifugation at 8000 rpm for 30 seconds.
Referring to the experimental method in Example 5, in vitro stability of salmon Calcitonin analogs with oral administration activity to the enzymatic hydrolysis by trypsin, chymotrypsin and elastase were performed.
Referring to the experimental method in Example 5, in vitro stability of IL-17A inhibitory peptides towards the enzymatic hydrolysis by trypsin, chymotrypsin and elastase were performed.

[2] = target: T1, bovine trypsin (Bos taurus, UniProt P00760); assay: Trypsin inhibitory activity of peptides (BApNA hydrolysis, OD405; IC50, Ki, residual activity); assay type: biochemical; conditions: for Ki: Ki=IC50/(1+S/Km), Km 0.33 mM, read-out: Ki; for IC50: trypsin 50 nM, BApNA 1.22 mM, read-out: IC50
T1 sequence (P00760 24-246): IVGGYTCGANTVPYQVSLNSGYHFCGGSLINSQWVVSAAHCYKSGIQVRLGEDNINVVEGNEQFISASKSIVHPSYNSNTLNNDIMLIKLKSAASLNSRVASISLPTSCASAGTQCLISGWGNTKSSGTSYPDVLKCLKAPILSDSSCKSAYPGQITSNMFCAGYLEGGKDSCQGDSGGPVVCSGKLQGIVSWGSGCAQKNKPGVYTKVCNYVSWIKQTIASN
Summary of the method: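 Trypsin (50 nM final) preincubated with peptides at 37 °C in 50 mM Tris-HCl pH 7.8, 20 mM CaCl2; BApNA added (1.22 mM final), 260 min at 37 °C, then OD405 read. Residual activity from enzyme-only and substrate-only controls; IC50 fitted and converted to Ki via Ki=IC50/(1+S/Km), Km measured separately for BApNA.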

[3] = isolated enzyme chymotrypsin, pH 7.8, Remaining peak area (%)/chymotrypsin

Which “stability towards chymotrypsin hydrolysis (in words)” value [1] does the source give for CC[C@H](C)[C@H](N)C(=O)N[C@@H](Cc1c[nH]cn1)C(=O)N[C@H](C(=O)N[C@H](C(=O)N[C@H](C(=O)N1CCC[C@H]1C(=O)N[C@@H](C)C(=O)N[C@@H](CC(=O)O)C(=O)N[C@@H](CC(C)C)C(=O)N[C@@H](Cc1c[nH]c2ccccc12)C(=O)N[C@@H](CC(=O)O)C(=O)N[C@@H](Cc1c[nH]c2ccccc12)C(=O)N[C@H](C(=O)N[C@@H](CC(N)=O)C(=O)NCC(=O)N[C@@H](Cc1ccccc1)C(=O)N[C@H]1CSSC[C@@H](C(=O)N[C@@H](Cc2ccc(O)cc2)C(=O)NCC(=O)O)NC(=O)[C@H](CCC(N)=O)NC(=O)[C@@H]2CCCN2C(=O)[C@@H]2CCCN2C(=O)[C@H]([C@@H](C)CC)NC(=O)[C@H](CO)NC(=O)[C@H](Cc2ccc(O)cc2)NC(=O)[C@H]([C@@H](C)O)NC1=O)[C@@H](C)CC)[C@@H](C)CC)[C@@H](C)O)C(C)C [17A-CH] (H-IHVTIPADLWDWINGFCTYSIPPQCYG-OH; disulfide 17-25) here?
The value was “tolerated to the degradation of corresponding serine proteases”.

And the “Remaining peak area (%)/chymotrypsin” value ([1]; 0 h)?
Its value is 100.0 ± 0.0%.

And the remaining at 0.025 h, 60 μM [1, 3]?
Its remaining at 0.025 h, 60 μM is 41.6 ± 3%.

And the remaining at 0.05 h, 60 μM [1, 3]?
Its remaining at 0.05 h, 60 μM is 41.7 ± 6%.

And the remaining at 0.075 h, 60 μM [1, 3]?
The remaining at 0.075 h, 60 μM was 38.8 ± 3.4%.

What about the remaining at 0.1 h, 60 μM [1, 3] of the same compound?
The remaining at 0.1 h, 60 μM was 45.1 ± 8.5%.

What about the remaining at 0.15 h, 60 μM [1, 3] of the same compound?
The remaining at 0.15 h, 60 μM was 44.3 ± 7.6%.

What about the remaining at 0.25 h, 60 μM [1, 3] of the same compound?
Its remaining at 0.25 h, 60 μM is 35.2 ± 3.8%.

And the remaining at 0.5 h, 60 μM [1, 3]?
The remaining at 0.5 h, 60 μM was 30.5 ± 2.5%.

What about the remaining at 1 h, 60 μM [1, 3] of the same compound?
Its remaining at 1 h, 60 μM is 35.7 ± 3%.

With CC[C@@H]1NC(=O)[C@@H](N)CSSC[C@@H](C(=O)N[C@@H](Cc2ccccc2)C(=O)O)NC(=O)[C@H]([C@@H](C)CC)NC(=O)[C@@H]2CCCN2C(=O)[C@@H]2CCCN2C(=O)[C@H]([C@@H](C)CC)NC(=O)[C@H](CO)NC(=O)[C@H](CCCCN)NC(=O)[C@H]([C@@H](C)O)NC(=O)[C@H](C)NC(=O)[C@H](CCCNC(=N)N)NC1=O [BT74] (H-C[Abu]RATKSIPPICF-OH; disulfide 1-12; N-terminus and C-terminus assumed) as the compound, how does the “inhibitory activity against trypsin (in words)” value (from here on “inhibitory activity”) [2] read?
The value was “excellent trypsin inhibitory activities”.

What about the Ki [2] of the same compound?
Its Ki is 20 nM.

What about the IC50 [2] of the same compound?
Its IC50 is 90 nM.

For CC[C@H](C)[C@@H]1NC(=O)[C@@H]2CCCN2C(=O)[C@@H]2CCCN2C(=O)[C@H]([C@@H](C)CC)NC(=O)[C@H](CO)NC(=O)[C@H](CCCCN)NC(=O)[C@H]([C@@H](C)O)NC(=O)[C@H](C)NC(=O)[C@H](CCCNC(=N)N)NC(=O)[C@H](CO)NC(=O)[C@@H](N)CSSC[C@@H](C(=O)N[C@@H](Cc2ccccc2)C(=O)O)NC1=O [BT75] (H-CSRATKSIPPICF-OH; disulfide 1-12; N-terminus and C-terminus assumed), which “inhibitory activity” value [2] is on record?
Its value is “excellent trypsin inhibitory activities”.

What about the Ki [2] of the same compound?
Its Ki is 8.5 nM.

What about the IC50 [2] of the same compound?
Its IC50 is 40 nM.

For CC[C@H](C)[C@@H]1NC(=O)[C@@H]2CCCN2C(=O)[C@@H]2CCCN2C(=O)[C@H]([C@@H](C)CC)NC(=O)[C@H](CO)NC(=O)[C@H](CCCCN)NC(=O)[C@H]([C@@H](C)O)NC(=O)[C@H](C)NC(=O)[C@H](CCCNC(=N)N)NC(=O)[C@H](CCCNC(=N)N)NC(=O)[C@@H](N)CSSC[C@@H](C(=O)N[C@@H](Cc2ccccc2)C(=O)O)NC1=O [BT76] (H-CRRATKSIPPICF-OH; disulfide 1-12; N-terminus and C-terminus assumed), which “inhibitory activity” value [2] is on record?
Its value is “excellent trypsin inhibitory activities”.

What about the Ki [2] of the same compound?
The Ki was 10 nM.

And the IC50 [2]?
The IC50 was 50 nM.

With CC[C@H](C)[C@@H]1NC(=O)[C@@H]2CCCN2C(=O)[C@@H]2CCCN2C(=O)[C@H]([C@@H](C)CC)NC(=O)[C@H](CO)NC(=O)[C@H](CCCCN)NC(=O)[C@H]([C@@H](C)O)NC(=O)[C@H](C)NC(=O)[C@H](CCCNC(=N)N)NC(=O)[C@H](CCCCN)NC(=O)[C@@H](N)CSSC[C@@H](C(=O)N[C@@H](Cc2ccccc2)C(=O)O)NC1=O [BT77] (H-CKRATKSIPPICF-OH; disulfide 1-12; N-terminus and C-terminus assumed) as the compound, how does the “inhibitory activity” value [2] read?
Its value is “excellent trypsin inhibitory activities”.

What about the Ki [2] of the same compound?
The Ki was 8.5 nM.

What about the IC50 [2] of the same compound?
The IC50 was 40 nM.

Which “inhibitory activity” value [2] does the source give for CC[C@H](C)[C@@H]1NC(=O)[C@@H]2CCCN2C(=O)[C@@H]2CCCN2C(=O)[C@H]([C@@H](C)CC)NC(=O)[C@H](CO)NC(=O)[C@H](CCCCN)NC(=O)[C@H]([C@@H](C)O)NC(=O)[C@H](C)NC(=O)[C@H](CCCNC(=N)N)NC(=O)[C@H](CCC(=O)O)NC(=O)[C@@H](N)CSSC[C@@H](C(=O)N[C@@H](Cc2ccccc2)C(=O)O)NC1=O [BT78] (H-CERATKSIPPICF-OH; disulfide 1-12; N-terminus and C-terminus assumed) here?
Its value is “excellent trypsin inhibitory activities”.

What about the IC50 [2] of the same compound?
Its IC50 is 30 nM.

Which results are given for CC[C@H](C)[C@@H]1NC(=O)[C@@H]2CCCN2C(=O)[C@@H]2CCCN2C(=O)[C@H]([C@@H](C)CC)NC(=O)[C@H](CO)NC(=O)[C@H](CCCCN)NC(=O)[C@H]([C@@H](C)O)NC(=O)[C@H](C)NC(=O)[C@H](CCCNC(=N)N)NC(=O)[C@H](CCC(N)=O)NC(=O)[C@@H](N)CSSC[C@@H](C(=O)N[C@@H](Cc2ccccc2)C(=O)O)NC1=O [BT79] (H-CQRATKSIPPICF-OH; disulfide 1-12; N-terminus and C-terminus assumed)?
inhibitory activity against trypsin (in words) [2]: excellent trypsin inhibitory activities; Ki [2]: 10 nM; IC50 [2]: 50 nM

For CCCC[C@@H]1NC(=O)[C@@H](N)CSSC[C@@H](C(=O)N[C@@H](Cc2ccccc2)C(=O)O)NC(=O)[C@H]([C@@H](C)CC)NC(=O)[C@@H]2CCCN2C(=O)[C@@H]2CCCN2C(=O)[C@H]([C@@H](C)CC)NC(=O)[C@H](CO)NC(=O)[C@H](CCCCN)NC(=O)[C@H]([C@@H](C)O)NC(=O)[C@H](C)NC(=O)[C@H](CCCNC(=N)N)NC1=O [BT80] (H-C[Nle]RATKSIPPICF-OH; disulfide 1-12; N-terminus and C-terminus assumed), which Ki [2] is on record?
The Ki was 20 nM.
